The values that follow come from article PMC5768359, “Dietary quercetin potentiates the antiproliferative effect of interferon-α in hepatocellular carcinoma cells through activation of JAK/STAT pathway signaling by inhibition of SHP2 phosphatase” (Oncotarget, 2017).

For one experiment, the target named is T1, SHP2 (Homo sapiens, UniProt Q06124).
T1 construct: gene PTPN11; GST-SHP2 (residues 205–593)
T1 sequence (Q06124 205-593): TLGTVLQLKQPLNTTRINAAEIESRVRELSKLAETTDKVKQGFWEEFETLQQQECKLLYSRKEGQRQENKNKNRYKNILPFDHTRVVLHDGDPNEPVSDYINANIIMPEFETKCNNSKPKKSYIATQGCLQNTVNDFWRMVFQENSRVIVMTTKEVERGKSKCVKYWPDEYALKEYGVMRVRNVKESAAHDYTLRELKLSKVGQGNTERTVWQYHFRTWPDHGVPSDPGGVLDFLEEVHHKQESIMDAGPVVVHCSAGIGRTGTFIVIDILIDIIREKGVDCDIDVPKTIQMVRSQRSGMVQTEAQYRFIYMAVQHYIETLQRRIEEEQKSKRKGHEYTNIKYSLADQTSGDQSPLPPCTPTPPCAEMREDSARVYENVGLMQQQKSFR
The experiment in a line: DiFMUP phosphatase assay with recombinant SHP2; supported by cellular thermal shift assay in HEK293A lysate. It is filed as biochemical.

The target of another experiment is T2, SHP1 (Homo sapiens, UniProt P29350).
T2 construct: gene PTPN6
T2 sequence (P29350 whole entry): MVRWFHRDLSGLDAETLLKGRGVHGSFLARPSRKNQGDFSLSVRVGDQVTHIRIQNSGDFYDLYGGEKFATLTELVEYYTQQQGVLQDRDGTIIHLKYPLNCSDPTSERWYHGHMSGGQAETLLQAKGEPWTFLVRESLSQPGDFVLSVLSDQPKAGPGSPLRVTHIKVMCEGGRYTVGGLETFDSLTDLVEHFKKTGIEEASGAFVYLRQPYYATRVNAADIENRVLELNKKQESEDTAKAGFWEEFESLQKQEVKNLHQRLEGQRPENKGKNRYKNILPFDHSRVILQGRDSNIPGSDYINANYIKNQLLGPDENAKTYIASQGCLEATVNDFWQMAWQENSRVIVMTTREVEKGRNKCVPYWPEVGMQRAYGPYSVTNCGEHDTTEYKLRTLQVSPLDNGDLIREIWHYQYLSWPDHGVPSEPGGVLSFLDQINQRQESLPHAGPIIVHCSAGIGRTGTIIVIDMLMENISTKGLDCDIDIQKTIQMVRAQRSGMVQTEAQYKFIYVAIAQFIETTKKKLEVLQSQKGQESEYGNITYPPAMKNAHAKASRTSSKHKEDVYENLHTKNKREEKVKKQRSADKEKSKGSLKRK
The experiment in a line: DiFMUP phosphatase assay with recombinant SHP1; supported by thermal stability shift. It is filed as biochemical.

Molecules are shown by their SMILES.

Usually IC50 stands for the concentration that inhibits the measured activity by half. As for `O=c1c(O)c(-c2ccc(O)c(O)c2)oc2cc(O)cc(O)c12` [quercetin], the 50% inhibitory concentration (IC50) on SHP2 was 10.2 ± 0.21 µM; on SHP1 it was 31.1 ± 1.27 µM.
